Assay results reported in BindingDB's records for patent US20190276450 (Abbvie, 2019).
pEC50: −log10 of the molar value.

Assays:
[1] = target: Non-receptor tyrosine-protein kinase TYK2 (Homo sapiens, UniProt P29597); assay: TYK2 (TYK2/JAK2 PSTAT4 T-BLAST) Alpha Screen Assay
Method: IL-12 is known to transduce its signal through IL-12 receptor via Jak2 and/or Tyk2. For that reason, the activity against Tyk2/Jak2 was measured by determining the inhibition of IL-12 induced phosphorylation of STAT4 in T-blast cells. […] See, e.g., Sohn et al., J. Immunology (2013) 2205-2216.

[2] = target: Tyrosine-protein kinase JAK1 (Homo sapiens, UniProt P23458); assay: JAK1 (PSTAT3 TF1) Alpha Screen Assay
Tyrosine-protein kinase JAK1, sequence (P23458 whole entry): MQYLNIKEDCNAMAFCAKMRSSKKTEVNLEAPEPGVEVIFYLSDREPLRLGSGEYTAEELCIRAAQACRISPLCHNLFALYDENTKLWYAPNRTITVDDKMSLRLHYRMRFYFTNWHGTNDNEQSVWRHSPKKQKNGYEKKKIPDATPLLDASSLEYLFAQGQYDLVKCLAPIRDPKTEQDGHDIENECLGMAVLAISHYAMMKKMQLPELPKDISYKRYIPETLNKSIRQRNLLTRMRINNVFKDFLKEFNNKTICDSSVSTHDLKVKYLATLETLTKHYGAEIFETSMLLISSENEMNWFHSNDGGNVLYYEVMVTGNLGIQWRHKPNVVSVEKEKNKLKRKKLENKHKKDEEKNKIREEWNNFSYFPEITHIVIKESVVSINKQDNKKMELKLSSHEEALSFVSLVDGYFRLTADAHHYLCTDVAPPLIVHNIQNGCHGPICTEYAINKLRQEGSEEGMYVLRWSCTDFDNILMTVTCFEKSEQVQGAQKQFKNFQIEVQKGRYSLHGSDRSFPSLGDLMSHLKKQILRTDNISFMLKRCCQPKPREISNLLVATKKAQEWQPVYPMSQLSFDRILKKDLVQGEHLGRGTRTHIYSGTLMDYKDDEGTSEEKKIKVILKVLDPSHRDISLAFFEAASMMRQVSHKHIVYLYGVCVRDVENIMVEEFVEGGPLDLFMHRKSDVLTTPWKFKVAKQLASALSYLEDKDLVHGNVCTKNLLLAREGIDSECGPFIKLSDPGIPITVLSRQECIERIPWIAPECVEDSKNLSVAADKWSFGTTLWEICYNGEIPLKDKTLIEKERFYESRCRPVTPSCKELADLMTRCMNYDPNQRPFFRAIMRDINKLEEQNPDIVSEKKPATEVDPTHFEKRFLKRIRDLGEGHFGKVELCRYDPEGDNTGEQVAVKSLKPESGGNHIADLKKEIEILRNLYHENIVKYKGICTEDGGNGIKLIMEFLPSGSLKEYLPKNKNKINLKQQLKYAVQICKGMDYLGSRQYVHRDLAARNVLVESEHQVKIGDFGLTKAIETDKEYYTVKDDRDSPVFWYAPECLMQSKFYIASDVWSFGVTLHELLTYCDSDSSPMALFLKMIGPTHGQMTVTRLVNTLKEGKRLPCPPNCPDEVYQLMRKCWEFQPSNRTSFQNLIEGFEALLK
Method: IL-6 is known to transduce its signal through IL-6 receptor via Jak1. Activity against Jak was therefore measured by determining inhibition of IL-6 induced phosphorylation of STAT3 in TF1 cells. From these tests, the EC50 (effective concentration for 50% maximal response) values were determined in 1 μM for the test compounds.

[3] = target: Tyrosine-protein kinase JAK2 (Homo sapiens, UniProt O60674); assay: JAK2 (PSTAT5 UT7) Alpha Screen Assay
Tyrosine-protein kinase JAK2, sequence (O60674 whole entry): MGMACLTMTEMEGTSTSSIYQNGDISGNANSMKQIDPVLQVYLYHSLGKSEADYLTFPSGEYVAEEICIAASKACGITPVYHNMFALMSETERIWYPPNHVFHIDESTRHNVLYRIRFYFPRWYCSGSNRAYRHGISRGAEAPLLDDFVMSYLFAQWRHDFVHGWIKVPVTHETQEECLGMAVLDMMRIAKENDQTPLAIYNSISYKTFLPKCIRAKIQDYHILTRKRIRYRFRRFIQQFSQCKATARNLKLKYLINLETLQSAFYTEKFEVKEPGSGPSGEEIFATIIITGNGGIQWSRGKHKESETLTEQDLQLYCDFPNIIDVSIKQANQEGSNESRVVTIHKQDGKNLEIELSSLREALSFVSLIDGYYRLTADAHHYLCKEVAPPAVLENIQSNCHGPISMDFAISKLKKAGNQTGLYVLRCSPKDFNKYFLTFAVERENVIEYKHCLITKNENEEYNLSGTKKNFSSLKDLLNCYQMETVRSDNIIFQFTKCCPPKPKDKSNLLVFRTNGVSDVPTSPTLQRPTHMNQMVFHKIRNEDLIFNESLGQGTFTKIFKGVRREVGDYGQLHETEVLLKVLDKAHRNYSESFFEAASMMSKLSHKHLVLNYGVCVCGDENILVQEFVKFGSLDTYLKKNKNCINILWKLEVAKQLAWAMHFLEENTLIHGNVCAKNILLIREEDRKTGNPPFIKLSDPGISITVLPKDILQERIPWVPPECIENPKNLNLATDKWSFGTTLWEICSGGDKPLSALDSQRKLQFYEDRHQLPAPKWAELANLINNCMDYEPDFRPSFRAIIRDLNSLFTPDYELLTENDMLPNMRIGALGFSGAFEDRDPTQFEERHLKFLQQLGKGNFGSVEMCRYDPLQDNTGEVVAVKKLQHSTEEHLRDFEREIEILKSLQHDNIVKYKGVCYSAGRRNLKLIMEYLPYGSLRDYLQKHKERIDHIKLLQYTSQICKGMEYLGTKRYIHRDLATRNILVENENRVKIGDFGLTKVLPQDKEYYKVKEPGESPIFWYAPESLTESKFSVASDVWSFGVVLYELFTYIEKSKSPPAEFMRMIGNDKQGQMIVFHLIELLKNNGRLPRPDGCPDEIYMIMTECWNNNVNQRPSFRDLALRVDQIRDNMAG
Method: Erythropoietin (EPO) is known to transduce its signal through EPO receptor via Jak2. Activity against Jak2 was therefore measured by determining inhibition of EPO induced phosphorylation of […] in UT7 cells. From these tests, the EC50 (effective concentration for 50% maximal response) values were determined in 1 μM for the test compounds.

Non-receptor tyrosine-protein kinase TYK2, sequence (P29597 whole entry): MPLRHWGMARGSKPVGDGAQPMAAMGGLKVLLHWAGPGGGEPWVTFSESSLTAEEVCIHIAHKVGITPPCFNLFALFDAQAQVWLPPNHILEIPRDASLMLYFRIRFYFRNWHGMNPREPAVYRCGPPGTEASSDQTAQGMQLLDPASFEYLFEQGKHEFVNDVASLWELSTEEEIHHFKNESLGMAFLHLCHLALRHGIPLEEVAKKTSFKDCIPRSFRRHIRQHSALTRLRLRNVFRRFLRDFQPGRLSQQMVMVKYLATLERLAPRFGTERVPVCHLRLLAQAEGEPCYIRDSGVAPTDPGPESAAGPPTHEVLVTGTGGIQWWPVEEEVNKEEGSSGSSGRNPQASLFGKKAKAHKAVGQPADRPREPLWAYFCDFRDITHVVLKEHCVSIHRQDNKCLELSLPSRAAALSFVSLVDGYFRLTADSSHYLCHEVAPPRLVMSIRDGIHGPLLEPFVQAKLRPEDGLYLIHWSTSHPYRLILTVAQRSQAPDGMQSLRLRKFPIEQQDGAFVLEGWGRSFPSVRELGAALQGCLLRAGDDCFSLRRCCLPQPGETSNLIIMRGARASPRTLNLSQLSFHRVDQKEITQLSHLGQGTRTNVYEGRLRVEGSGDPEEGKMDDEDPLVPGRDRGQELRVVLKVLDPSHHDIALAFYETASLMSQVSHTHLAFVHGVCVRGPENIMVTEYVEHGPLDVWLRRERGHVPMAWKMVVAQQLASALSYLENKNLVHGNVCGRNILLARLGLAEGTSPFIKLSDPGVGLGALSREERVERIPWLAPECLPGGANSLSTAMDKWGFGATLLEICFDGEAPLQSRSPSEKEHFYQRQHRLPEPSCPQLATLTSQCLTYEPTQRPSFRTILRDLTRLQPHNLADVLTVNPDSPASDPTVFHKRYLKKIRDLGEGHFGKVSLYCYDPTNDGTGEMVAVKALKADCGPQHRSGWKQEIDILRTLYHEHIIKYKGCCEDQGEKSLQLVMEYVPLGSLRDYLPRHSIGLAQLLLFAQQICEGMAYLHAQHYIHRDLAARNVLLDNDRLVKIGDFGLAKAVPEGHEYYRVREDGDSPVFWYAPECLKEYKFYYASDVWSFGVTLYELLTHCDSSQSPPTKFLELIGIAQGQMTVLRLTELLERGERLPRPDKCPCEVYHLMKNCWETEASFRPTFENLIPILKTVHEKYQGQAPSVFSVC

Row | pEC50 [1] | pEC50 [2] | pEC50 [3] | Compound
1 | 6.84 | 4.98 | < 4.60 | COCc1cc(-c2cn(C)c3cnc(NC(C)=O)cc23)nc([C@]2(CO)CCOC2)c1 [US20190276450, Example 22]
2 | 7.10 | 5.55 | < 4.60 | CC(=O)Nc1cc2c(-c3cccc([C@]4(CO)CCOC4)n3)cn(C)c2cn1 [US20190276450, Example 21]
3 | 6.76 | 4.27 | < 4.60 | CO[C@@]1(c2cc(C(F)F)cc(-c3cn(C4COC4)c4cnc(NC(C)=O)cc34)n2)CCOC1 [US20190276450, Example 4.3]
4 | 7.07 | 4.38 | < 4.60 | CO[C@@]1(c2cc(OCC[C@H](C)O)cc(-c3cn(C)c4cnc(NC(C)=O)cc34)n2)CCOC1 [US20190276450, Example 9]
5 | 7.60 | 4.68 | < 4.60 | CO[C@@]1(c2cc(C)cc(-c3cn(C)c4cnc(NC(N)=O)cc34)n2)CCOC1 [US20190276450, Example 1b.2]
6 | 6.84 | 4.15 | < 4.60 | CO[C@@]1(c2cc(OC[C@H](C)O)cc(-c3cn(C)c4cnc(NC(C)=O)cc34)n2)CCOC1 [US20190276450, Example 14.5]
7 | 7.46 | 4.74 | < 4.60 | COCc1cc(-c2cn(C)c3cnc(NC(N)=O)cc23)nc([C@]2(OC)CCOC2)c1 [US20190276450, Example 3]
8 | 7.04 | < 4.00 | < 4.60 | COCc1cc(-c2cn(C)c3cnc(NC(=O)CO)cc23)nc([C@]2(OC)CCOC2)c1 [US20190276450, Example 24]
9 | 7.51 | 4.57 | < 4.60 | CO[C@@]1(c2cccc(-c3cn([C@H]4C[C@H](C#N)C4)c4cnc(NC(C)=O)cc34)n2)CCOC1 [US20190276450, Example 17]
10 | 7.23 | 5.26 | < 4.60 | CO[C@@]1(c2cccc(-c3cn(C)c4cnc(NC(N)=O)cc34)n2)CCOC1 [US20190276450, Example 1]
11 | 7.06 | 4.31 | < 4.60 | CO[C@@]1(c2cc(OC[C@@H](C)O)cc(-c3cn(C)c4cnc(NC(C)=O)cc34)n2)CCOC1 [US20190276450, Example 14.6]
12 | 6.61 | 4.79 | < 4.60 | CO[C@@]1(c2cncc(-c3cn(C)c4cnc(NC(N)=O)cc34)n2)CCOC1 [US20190276450, Example 12]
13 | 6.90 | 4.25 | < 4.60 | CO[C@@]1(c2cc(C#N)cc(-c3cn([C@@H]4CC4(F)F)c4cnc(NC(C)=O)cc34)n2)CCOC1 [US20190276450, Example 2a.3]
14 | 6.06 | 4.47 | < 4.60 | CO[C@@]1(c2cc(OCC[C@@H](C)O)cc(-c3cn(C)c4cnc(NC(C)=O)cc34)n2)CCOC1 [US20190276450, Example 7]
15 | 7.28 | 4.64 | < 4.60 | CO[C@@]1(c2cc(O[C@H]3C[C@H](O)C3)cc(-c3cn(C)c4cnc(NC(C)=O)cc34)n2)CCOC1 [US20190276450, Example 11]
16 | 7.30 | 4.68 | < 4.60 | CO[C@@]1(c2cc(OCC3COC3)cc(-c3cn(C)c4cnc(NC(C)=O)cc34)n2)CCOC1 [US20190276450, Example 6]
17 | 6.70 | 4.39 | < 4.60 | CO[C@@]1(c2cc(C)cc(-c3cn(C)c4cnc(NC(C)=O)cc34)n2)CCOC1 [US20190276450, Example 2.2]
18 | 6.87 | 4.20 | < 4.60 | CO[C@@]1(c2cc(O[C@@H](C)CCO)cc(-c3cn(C)c4cnc(NC(C)=O)cc34)n2)CCOC1 [US20190276450, Example 14.4]
19 | 7.04 | < 4.60 | < 4.60 | CO[C@H](C)COc1cc(-c2cn(C)c3cnc(NC(C)=O)cc23)nc([C@]2(OC)CCOC2)c1 [US20190276450, Example 22.10]
20 | 5.92 |  | < 4.60 | COCc1cc(-c2cn(C)c3cnc(NC(C)=O)cc23)nc([C@@]2(CO)CCOC2)c1 [US20190276450, Example 22a]
